In patent US8314112B2 (Novartis AG, priority 2008, dated 2012) one finds IC50 data, which are given here for 32 molecules.

Molecules are shown by their SMILES.

This experiment addresses T1, human ALK5 (kinase domain, ALK5 T204D) (Homo sapiens, UniProt P36897, T204D).
T1 construct: The kinase domain of human ALK5 (amino acids 200-503); made in house; host or cells: insect cells (baculovirus)
T1 sequence (P36897 200-503 T204D): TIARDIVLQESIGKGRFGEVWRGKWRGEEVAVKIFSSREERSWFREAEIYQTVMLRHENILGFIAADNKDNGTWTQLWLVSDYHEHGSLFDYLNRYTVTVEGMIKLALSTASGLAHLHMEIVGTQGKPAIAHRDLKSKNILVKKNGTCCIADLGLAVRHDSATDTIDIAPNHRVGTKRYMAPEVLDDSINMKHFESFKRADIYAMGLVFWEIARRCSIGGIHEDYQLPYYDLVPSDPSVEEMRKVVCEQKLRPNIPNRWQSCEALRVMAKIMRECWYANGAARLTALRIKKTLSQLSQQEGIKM
Put plainly: ALK5 kinase assay ([33P] phosphate incorporation into casein). The conditions noted are these: casein substrate, 1 μM unlabelled ATP. The experiment is classed as biochemical. Put shortly:
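His-tagged human ALK5 T204D kinase domain (aa 200-503, constitutively active, baculovirus/insect-cell expressed), 50 ng/well, preincubated 10 min with compound and dephosphorylated casein (200 μg/well) in Tris pH 7.4/MgCl2/MnCl2. Reaction started with 1 μM ATP plus [33P]ATP, 50 min at room temperature, EDTA-stopped; casein-bound 33P counted by scintillation after filter capture.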
As a reminder, the IC50 is the concentration at which inhibition is half-maximal. Low readings indicate higher potency, high ones lower potency. `Cc1cccc(-c2nc(-c3cncc(-c4ccc(CN5CCN(C)CC5)cc4)c3)c3cc[nH]c3n2)n1` [Example 20, 4-{5-[4-(4-Methyl-piperazin-1-ylmethyl)-phenyl]-pyridin-3-yl}-2-(6-methyl-pyridin-2-yl)-7H-pyrrolo[2,3-d]pyrimidine] displayed an IC50 of 45 nM.

Turning to `CSc1cncc(-c2cc(-c3cccc(C)n3)nc3[nH]ccc23)c1` [Example 105, 6-(6-Methyl-pyridin-2-yl)-4-(5-methylsulfanyl-pyridin-3-yl)-1H-pyrrolo[2,3-b]pyridine], the IC50 was found to be 115 nM.

`Cc1cccc(-c2nc(-c3cncc(-c4ccccc4F)c3)c3cc[nH]c3n2)n1` [Example 24, 4-[5-(2-Fluoro-phenyl)-pyridin-3-yl]-2-(6-methyl-pyridin-2-yl)-7H-pyrrolo[2,3-d]pyrimidine]: the IC50 is 34 nM.

On to `Cc1cccc(-c2nc(-c3cncc(-c4ccc(CN5CC[C@H](N(C)C)C5)cc4)c3)c3cc[nH]c3n2)n1` [Example 100, Dimethyl-[(S)-1-(4-{5-[2-(6-methyl-pyridin-2-yl)-7H-pyrrolo[2,3-d]pyrimidin-4-yl]-pyridin-3-yl}-benzyl)-pyrrolidin-3-yl]-amine], for which inhibition was half-maximal at 8 nM (IC50).

Consider `Cc1cccc(-c2nc(-c3cncc(-c4ccc(C(=O)N5CCNCC5)cc4)c3)c3cc[nH]c3n2)n1` [Example 40, (4-{5-[2-(6-Methyl-pyridin-2-yl)-7H-pyrrolo[2,3-d]pyrimidin-4-yl]-pyridin-3-yl}-phenyl)-piperazin-1-yl-methanone], for which the IC50 is 3 nM.

Molecule `Cc1cccc(-c2nc(-c3cncc(NC(=O)CCCN(C)C)c3)c3cc[nH]c3n2)n1` [Example 30, 4-Dimethylamino-N-{5-[2-(6-methyl-pyridin-2-yl)-7H-pyrrolo[2,3-d]pyrimidin-4-yl]-pyridin-3-yl}-butyramide] had an IC50 of 64 nM.

`CCC(=O)Nc1cncc(-c2nc(-c3cccc(C)n3)nc3[nH]ccc23)c1` [Example 27, N-{5-[2-(6-Methyl-pyridin-2-yl)-7H-pyrrolo[2,3-d]pyrimidin-4-yl]-pyridin-3-yl}-propionamide]: the IC50 amounted to 723 nM.

Molecule `Cc1cccc(-c2nc(-c3cncc(-c4ccc(C(C)(C)N)cc4)c3)c3cc[nH]c3n2)n1` [Example 77, 1-Methyl-1-(4-{5-[2-(6-methyl-pyridin-2-yl)-7H-pyrrolo[2,3-d]pyrimidin-4-yl]-pyridin-3-yl}-phenyl)-ethylamine] registered an IC50 of 9 nM.

Molecule `Cc1cccc(-c2nc(-c3cncc(C#CCN4CCN(C)CC4)c3)c3cc[nH]c3n2)n1` [Example 122, 4-{5-[3-(4-methyl-piperazin-1-yl)-prop-1-ynyl]-pyridin-3-yl}-2-(6-methyl-pyridin-2-yl)-7H-pyrrolo[2,3-d]pyrimidine] showed an IC50 of 45 nM.

The molecule `Cc1cccc(-c2cc(-c3cncc(-c4ccc(CN5CCOCC5)cc4)c3)c3cc[nH]c3n2)n1` [Example 88, 6-(6-Methyl-pyridin-2-yl)-4-[5-(4-morpholin-4-ylmethyl-phenyl)-pyridin-3-yl]-1H-pyrrolo[2,3-b]pyridine] registered an IC50 of 20 nM.

Turning to `Cc1cccc(-c2nc(-c3cncc(C#N)c3)c3cc[nH]c3n2)n1` [Example 98, 5-[2-(6-Methyl-pyridin-2-yl)-7H-pyrrolo[2,3-d]pyrimidin-4-yl]-nicotinonitrile], the IC50 is 799 nM.

`Cc1cccc(-c2nc(-c3cncc(-c4ccc(CN5CC[C@@H](N(C)C)C5)cc4)c3)c3cc[nH]c3n2)n1` [Example 97, Dimethyl-[(R)-1-(4-{5-[2-(6-methyl-pyridin-2-yl)-7H-pyrrolo[2,3-d]pyrimidin-4-yl]-pyridin-3-yl}-benzyl)-pyrrolidin-3-yl]-amine] came in with an IC50 of 8 nM.

For `COc1cccc(-c2cncc(-c3cc(-c4cccc(C)n4)nc4[nH]ccc34)c2)c1` [Example 60, 4-[5-(3-Methoxy-phenyl)-pyridin-3-yl]-6-(6-methyl-pyridin-2-yl)-1H-pyrrolo[2,3-b]pyridine], the midpoint of inhibition, the IC50, lay at 96 nM.

On to `Cc1cccc(-c2cc(-c3cncc(N)c3)c3cc[nH]c3n2)n1` [Example 106, 5-[6-(6-Methyl-pyridin-2-yl)-1H-pyrrolo[2,3-b]pyridin-4-yl]-pyridin-3-ylamine], for which the IC50 was 66 nM.

`Cc1cccc(-c2cc(-c3cncc(-c4cncc(CN(C)C)c4)c3)c3cc[nH]c3n2)n1` [Example 91, Dimethyl-{5′-[6-(6-methyl-pyridin-2-yl)-1H-pyrrolo[2,3-b]pyridin-4-yl]-[3,3′]bipyridinyl-5-ylmethyl}-amine] gave an IC50 of 109 nM.

`CC(=O)NCCC(=O)Nc1cncc(-c2nc(-c3cccc(C)n3)nc3[nH]ccc23)c1` [Example 53, 3-Acetylamino-N-{5-[2-(6-methyl-pyridin-2-yl)-7H-pyrrolo[2,3-d]pyrimidin-4-yl]-pyridin-3-yl}-propionamide] returned an IC50 of 570 nM.

In turn, `Cc1cccc(-c2nc(-c3cncc(-c4ccc(C(C)N)cc4)c3)c3cc[nH]c3n2)n1` (centres unmarked) [Example 81, 1-(4-{5-[2-(6-Methyl-pyridin-2-yl)-7H-pyrrolo[2,3-d]pyrimidin-4-yl]-pyridin-3-yl}-phenyl)-ethylamine] yielded an IC50 of 17 nM.

`Cc1cccc(-c2cc(-c3cncc(-c4ccc(C(C)(C)N(C)CCO)cc4)c3)c3cc[nH]c3n2)n1` [Example 163, 2-{Methyl-[1-methyl-1-(4-{5-[6-(6-methyl-pyridin-2-yl)-1H-pyrrolo[2,3-b]pyridin-4-yl]-pyridin-3-yl}-phenyl)-ethyl]-amino}-ethanol]: the IC50 came to 6.6 nM.

As for `COc1cncc(-c2cc(-c3cccc(C)n3)nc3[nH]ccc23)c1` [Example 47, 4-(5-Methoxy-pyridin-3-yl)-6-(6-methyl-pyridin-2-yl)-1H-pyrrolo[2,3-b]pyridine], the midpoint of inhibition, the IC50, lay at 28 nM.

As for `Cc1cccc(-c2nc(-c3cncc(NC(=O)CCN)c3)c3cc[nH]c3n2)n1` [Example 50, 3-amino-N-{5-[2-(6-methyl-pyridin-2-yl)-7H-pyrrolo[2,3-d]pyrimidin-4-yl]-pyridin-3-yl}-propionamide], the IC50 was found to be 149 nM.

`Cc1cccc(-c2nc(-c3cncc(-c4ccccc4C)c3)c3cc[nH]c3n2)n1` [Example 32, 2-(6-Methyl-pyridin-2-yl)-4-(5-o-tolyl-pyridin-3-yl)-7H-pyrrolo[2,3-d]pyrimidine] came in with a 50% inhibitory concentration (IC50) of 762 nM.

The molecule `CN1CCN(Cc2cccc(-c3cncc(-c4nc(-c5ccccn5)nc5[nH]ccc45)c3)c2)CC1` [Example 45, 4-{5-[3-(4-Methyl-piperazin-1-ylmethyl)-phenyl]-pyridin-3-yl}-2-pyridin-2-yl-7H-pyrrolo[2,3-d]pyrimidine] had an IC50 of 19 nM.

Regarding `Cc1cccc(-c2nc(-c3cncc(C(=O)NCCCN4CCN(C)CC4)c3)c3cc[nH]c3n2)n1` [Example 25, N-[3-(4-Methyl-piperazin-1-yl)-propyl]-5-[2-(6-methyl-pyridin-2-yl)-7H-pyrrolo[2,3-d]pyrimidin-4-yl]-nicotinamide], inhibition was half-maximal at 223 nM (IC50).

Consider `Cc1cccc(-c2nc(-c3cncc(O)c3)c3cc[nH]c3n2)n1` [Example 80, 5-[2-(6-Methyl-pyridin-2-yl)-7H-pyrrolo[2,3-d]pyrimidin-4-yl]-pyridin-3-ol], for which the 50% inhibitory concentration (IC50) was 239 nM.

As to `Cc1cccc(-c2cc(-c3cncc(-c4cccc(CC(=O)O)c4)c3)c3cc[nH]c3n2)n1` [Example 156, (3-{5-[6-(6-Methyl-pyridin-2-yl)-1H-pyrrolo[2,3-b]pyridin-4-yl]-pyridin-3-yl}-phenyl)-acetic acid], half-maximal inhibition (IC50) required 11 nM.

`Cc1cccc(-c2nc(-c3cncc(-c4nnn[nH]4)c3)c3cc[nH]c3n2)n1` [Example 104, 2-(6-Methyl-pyridin-2-yl)-4-[5-(1H-tetrazol-5-yl)-pyridin-3-yl]-7H-pyrrolo[2,3-d]pyrimidine] displayed an IC50 of 1030 nM.

`Cc1cccc(-c2nc(-c3cncc(-c4cccc(C5CNCCN5)c4)c3)c3cc[nH]c3n2)n1` (centres unmarked) [Example 99, 2-(6-Methyl-pyridin-2-yl)-4-[5-(3-piperazin-2-yl-phenyl)-pyridin-3-yl]-7H-pyrrolo[2,3-d]pyrimidine] gave an IC50 of 14 nM.

For `Cc1cccc(-c2nc(-c3cncc(C4=CCNCC4)c3)c3cc[nH]c3n2)n1` [Example 101, 5-[2-(6-Methyl-pyridin-2-yl)-7H-pyrrolo[2,3-d]pyrimidin-4-yl]-1′,2′,3′,6′-tetrahydro-[3,4′]bipyridinyl], the IC50 came to 437 nM.

As to `COC(=O)CN(C)Cc1cccc(-c2cncc(-c3cc(-c4cccc(C)n4)nc4[nH]ccc34)c2)c1` [Example 141, [Methyl-(3-{5-[6-(6-methyl-pyridin-2-yl)-1H-pyrrolo[2,3-b]pyridin-4-yl]-pyridin-3-yl}-benzyl)-amino]-acetic acid methyl ester], inhibition was half-maximal at 17 nM (IC50).

In turn, `Cc1cccc(-c2nc(-c3cncc(-c4cccc(CN(C)CC(=O)O)c4)c3)c3cc[nH]c3n2)n1` [Example 145] registered an IC50 of 26 nM.

In turn, `Cc1cccc(-c2nc(-c3cncc(-c4cccnc4)c3)c3cc[nH]c3n2)n1` [Example 22, 5-[2-(6-Methyl-pyridin-2-yl)-7H-pyrrolo[2,3-d]pyrimidin-4-yl]-[3,3′]bipyridinyl] returned an IC50 of 44 nM.

In the case of `Cc1cccc(-c2cc(-c3cncc(-c4ccc(CN5CC(O)C5)cc4)c3)c3cc[nH]c3n2)n1` [Example 138, 1-(4-{5-[6-(6-Methyl-pyridin-2-yl)-1H-pyrrolo[2,3-b]pyridin-4-yl]-pyridin-3-yl}-benzyl)-azetidin-3-ol], half-maximal inhibition (IC50) was put at 11 nM.
